Patent publication US9387225B2, “Gold-platinum based bi-metallic nanocrystal suspensions, electrochemical manufacturing processes therefor and uses for the same” (GR INTELLECTUAL RESERVE, LLC, a Nevada LLC, priority 2011, dated 2016)
Where two headings read alike, the source gives them in different places.

Key:
HCT116 tumors [1] = experiment: Xenograft cancer study in mice, HCT116, oral administration (Example 20d); format: in vivo, mouse
Text: (§1) Female Balb/C, immunologically deficient recipient mice (6-8 weeks old) had tumors implanted therein. The Balb/C donor mice were used to grow HCT116 tumors, which tumors were excised therefrom and subsequently sectioned into small fragments about 2 mm^3 in size. The Balb/C recipient mice were given brief general anesthesia and then one HCT116 2 mm^3 tumor fragment from the donor mice was implanted into each of the left and right flank of the recipient mice using a trocar needle. Once the tumors in the recipient mice had reached a measurable size of about 4×4 mm, as measured by calipers placed against each mouse skin, the recipient mice were randomly placed into treatment groups, 8 per group and the oral treatment was started. 8 mice were in the positive control group (“Cisplatin”) and 8 mice were in the negative control group and received only water (“Control”). Treatment was given exclusively via the drinking bottle shared between the mice in each Treatment group. Cisplatin was given by intraperitoneal injection on day 0. Tumor size was assessed five times per week using a pair of calipers and mouse weight was also obtained by a scale, such measuring occurring until the mouse died (or was removed from the study) or the study was terminated as scheduled.
• Species: Mice • Strain: Balb/C immunodeficient mice • Source: Harlan • Gender and number: Female, 36 • Age: About 6-8 weeks old at the start of the study. • Identification: Each mouse was given a unique identity number. • Animal husbandry: On receipt, all animals were examined for external signs of ill-health and all unhealthy animals were excluded from further evaluation. Animals were housed in groups of three under specific pathogen free (spf) conditions, in a thermostatically monitored room (22±4° C.) in an animal unit. Animals were equilibrated under standard animal house conditions for at least 72 hours prior to use. The health status of the animals was monitored throughout this period and the suitability of each animal for experimental use was assessed prior to study start. • Housing Animals were housed in groups of 3 per cage in a controlled room, to ensure correct temperature, humidity and 12 hour light/dark cycle for the duration of the study. • Diet: Irradiated pellet diet and water was available ad libitum throughout the holding, acclimatisation and post-dose periods. Compound and Reagents • HCT 116 cell line (ATCC CCL-247). • Phosphate buffered saline (“PBS”). • Test compounds: Au—Pt bi-metallic nanocrystal suspensions. • Positive control compound: cisplatin. • Negative control compound: drinking water. Treatment Groups and Dosages • Negative Control Group 1: Days 0-21, given normal drinking water. • Positive Control Group 2: Days 0-21, given normal drinking water; and given a one-time cisplatin dose of 8 mg/kg by intraperitoneal injection (“IP”) on day 0. • Treatment Group 3-5: Days 0-21, given test compounds as their drinking water. Protocol A: Preparation and Growth of Donor Tumors
(§2) a.) Preparation of Tumor Cells • 1. Cells were grown in complete medium and all contaminants were excluded. • 2. When the cells were approximately 70-80% confluent, then approximately 3-4 hours before harvesting, the old cell growth medium was replaced with fresh cell growth medium to remove any dead and/or detached cells. • 3. […] The cells were then placed on a glass slide in the traditional manner and were counted using a hemocytometer. • 5. […]

H460 tumors = experiment: Xenograft cancer study in mice, H460, oral administration (Example 20e); format: in vivo, mouse
Text: Female Balb/C, immunologically deficient recipient mice (6-8 weeks old) had tumors implanted therein. The Balb/C donor mice were used to grow H460 tumors, which tumors were excised therefrom and subsequently sectioned into small fragments about 2 mm^3 in size. The Balb/C recipient mice were given brief general anesthesia and then one H4602 mm^3 tumor fragment from the donor mice was implanted into each of the left and right flank of the recipient mice using a trocar needle. Once the tumors in the recipient mice had reached a measurable size of about 4×4 mm, as measured by calipers placed against each mouse skin, the recipient mice were randomly placed into treatment groups, 8 per group and the oral treatment was started. 8 mice were in the positive control group (“Cisplatin”) and 8 mice were in the negative control group and received only water (“Control”). Treatment was given exclusively via the drinking bottle shared between the mice in each Treatment group. Cisplatin was given by intraperitoneal injection on day 0. Tumor size was assessed five times per week using a pair of calipers and mouse weight was also obtained by a scale, such measuring occurring until the mouse died (or was removed from the study) or the study was terminated as scheduled.
• Species: Mice • Strain: Balb/C immunodeficient mice • Source: Harlan • Gender and number: Female, 36 • Age: About 6-8 weeks old at the start of the study. • Identification: Each mouse was given a unique identity number. • Animal husbandry: On receipt, all animals were examined for external signs of ill-health and all unhealthy animals were excluded from further evaluation. Animals were housed in groups of three under specific pathogen free (spf) conditions, in a thermostatically monitored room (22±4° C.) in an animal unit. Animals were equilibrated under standard animal house conditions for at least 72 hours prior to use. The health status of the animals was monitored throughout this period and the suitability of each animal for experimental use was assessed prior to study start. • Housing Animals were housed in groups of 3 per cage in a controlled room, to ensure correct temperature, humidity and 12 hour light/dark cycle for the duration of the study. • Diet: Irradiated pellet diet and water was available ad libitum throughout the holding, acclimatisation and post-dose periods. Compound and Reagents • H460cell line (ATCC HTB-177). • Phosphate buffered saline (“PBS”). • Test compounds: Au—Pt bi-metallic nanocrystal suspensions. • Positive control compound: cisplatin. • Negative control compound: drinking water. Treatment Groups and Dosages • Negative Control Group 1: Days 0-21, given normal drinking water. • Positive Control Group 2: Days 0-21, given normal drinking water; and given a one-time cisplatin dose of 8 mg/kg by intraperitoneal injection (“IP”) on day 0. • Treatment Group 3-5: Days 0-21, given test compounds as their drinking water. Protocol A: Preparation and Growth of Donor Tumors
as §2

HCT116 tumors [2] = format: in vivo
Text: as §1
• Species: Mice • Strain: Balb/C immunodeficient mice • Source: Harlan • Gender and number: Female, 36 • Age: About 6-8 weeks old at the start of the study. • Identification: Each mouse was given a unique identity number. • Animal husbandry: On receipt, all animals were examined for external signs of ill-health and all unhealthy animals were excluded from further evaluation. Animals were housed in groups of three under specific pathogen free (spf) conditions, in a thermostatically monitored room (22±4° C.) in an animal unit. Animals were equilibrated under standard animal house conditions for at least 72 hours prior to use. The health status of the animals was monitored throughout this period and the suitability of each animal for experimental use was assessed prior to study start. • Housing Animals were housed in groups of 3 per cage in a controlled room, to ensure correct temperature, humidity and 12 hour light/dark cycle for the duration of the study. • Diet: Irradiated pellet diet and water was available ad libitum throughout the holding, acclimatisation and post-dose periods. Compound and Reagents • HCT 116 cell line (ATCC CCL-247). • Phosphate buffered saline (“PBS”). • Test compounds: gold nanocrystal suspension NE-28-10X (NE-28 produced equivalent to • NE10214 in Example 1) Concentrated 10×. • Positive control compound: cisplatin. • Negative control compound: drinking water. Treatment Groups and Dosages • Negative Control Group 1: Days 0-21, given normal drinking water. • Positive Control Group 2: Days 0-21, given normal drinking water; and given a one-time cisplatin dose of 8 mg/kg by intraperitoneal injection (“IP”) on day 0. • Treatment Group 3: Days 0-21, given test compounds as their drinking water. Protocol A: Preparation and Growth of Donor Tumors
as §2

[3] = HCT116 xenograft, oral, versus Group 1 (Control)
[4] = tumor doubling time, HCT116 xenograft, oral
[5] = tumor doubling time, H460 xenograft, oral

**Q.** With N.N.[Cl][Pt][Cl] [cisplatin] as the compound, how does the “Growth Delay” value (HCT116 tumors [1]; [3]) read?
**A.** Its value is 1.7 days.

**Q.** What about the “Maximum % Weight Loss” value (HCT116 tumors [1]; mouse, in vivo, po) of the same compound?
**A.** Its value is 5%.

**Q.** And the “Maximum % Weight Loss, day (d) of maximum” value (shortened to “Maximum % Weight Loss, day”) (HCT116 tumors [1]; mouse, in vivo, po)?
**A.** The value was 7 days.

**Q.** What about the “Mean Time to RTV2” value (HCT116 tumors [1]; [4]) of the same compound?
**A.** The value was 5.2 days.

**Q.** What about the “Median Time to RTV2” value (HCT116 tumors [1]; [4]) of the same compound?
**A.** The value was 5.2 days.

**Q.** What about the “Growth Delay” value (H460 tumors; H460 xenograft, oral, versus Group 1 (Control)) of the same compound?
**A.** Its value is 2.5 days.

**Q.** And the “Maximum % Weight Loss” value (H460 tumors; mouse, in vivo, po)?
**A.** Its value is 6%.

**Q.** What about the “Maximum % Weight Loss, day” value (H460 tumors; mouse, in vivo, po) of the same compound?
**A.** The value was 3 days.

**Q.** And the “Mean Time to RTV2” value (H460 tumors; [5])?
**A.** Its value is 5.0 days.

**Q.** And the “Median Time to RTV2” value (H460 tumors; [5])?
**A.** The value was 5.0 days.

**Q.** And the “Growth Delay” value (HCT116 tumors [2]; [3])?
**A.** Its value is 0.9 days.

**Q.** What about the “Maximum % Weight Loss” value (HCT116 tumors [2]; mouse, in vivo, po) of the same compound?
**A.** Its value is 5%.

**Q.** What about the “Maximum % Weight Loss, day” value (HCT116 tumors [2]; mouse, in vivo, po) of the same compound?
**A.** The value was 2 days.

**Q.** And the “Mean Time to RTV2” value (HCT116 tumors [2]; [4])?
**A.** The value was 3.9 days.

**Q.** What about the “Median Time to RTV2” value (HCT116 tumors [2]; [4]) of the same compound?
**A.** Its value is 3.5 days.
